The subject of this test is SARS-CoV-2. The test can be described thus: microbe, parasite or virus in culture. It is filed as cell-based. The settings on record: read-out: EC50, μM (Hela).
[1] abbreviates: Severe acute respiratory syndrome coronavirus 2, HeLa-ACE2 cells infected with SARS-CoV-2, 24 h, immunofluorescence of infected cells.
Where [2] appears, read: Severe acute respiratory syndrome coronavirus 2, HeLa-ACE2, 24 h.

Like-named read-outs stand apart in the source and are kept apart here.

As usually defined, the EC50 is the concentration that produces a half-maximal response.

`CC(C)(C)C[C@H](NC(=O)C(=O)Nc1ccccc1F)C(=O)N[C@@H](C[C@@H]1CCCNC1=O)C(=O)CO` [Compound 87, N^1-(2-fluorophenyl)-N^2-((S)-1-(((S)-4-hydroxy-3-oxo-1-((S)-2-oxopiperidin-3-yl)butan-2-yl)amino)-4,4-dimethyl-1-oxopentan-2-yl)oxalamide]: the EC50 under setting [1] is < 0.05 µM.

For the compound `CCc1cccc(CC)c1NC(=O)C(=O)N[C@@H](CC(C)C)C(=O)N[C@@H](C[C@@H]1CCCNC1=O)C(=O)CO` [Compound 28, N^1-(2,6-diethylphenyl)-N^2-((S)-1-(((S)-4-hydroxy-3-oxo-1-((S)-2-oxopiperidin-3-yl)butan-2-yl)amino)-4-methyl-1-oxopentan-2-yl)oxalamide], the EC50 under setting [1] was < 0.05 µM. With `CC(C)C[C@H](NC(=O)OCc1cccc(Cl)c1)C(=O)N[C@@H](C[C@@H]1CCNC1=O)C(=O)COC(=O)Cc1ccccc1` [Compound 121, (S)-3-((S)-2-((((3-chlorobenzyl)oxy)carbonyl)amino)-4-methylpentanamido)-2-oxo-4-((S)-2-oxopyrrolidin-3-yl)butyl 2-phenylacetate], the EC50 under setting [2] is > 1 µM. Regarding `CC(C)(C)C[C@H](NC(=O)C(=O)Nc1ccccc1C(F)(F)F)C(=O)N[C@@H](CC1CCCNC1=O)C(=O)CO` (stereo partly shown) [Compound 96], under setting [1], the EC50 is < 0.05 µM. Still for that read-out and setting: as for `CC(C)C[C@H](NC(=O)C(=O)NC12CCC(F)(CC1)CC2)C(=O)N[C@@H](C[C@@H]1CCCNC1=O)C(=O)CO` [Compound 135, N^1-(4-fluorobicyclo[2.2.2]octan-1-yl)-N^2-((S)-1-(((S)-4-hydroxy-3-oxo-1-((S)-2-oxopiperidin-3-yl)butan-2-yl)amino)-4-methyl-1-oxopentan-2-yl)oxalamide], the figure is > 1 µM.

For `CC1(C[C@H](NC(=O)C(=O)NC23CC(F)(C2)C3)C(=O)N[C@@H](C[C@@H]2CCCNC2=O)C(=O)CO)CCC1` [Compound 111, N^1-(3-fluorobicyclo[1.1.1]pentan-1-yl)-N^2-((S)-1-(((S)-4-hydroxy-3-oxo-1-((S)-2-oxopiperidin-3-yl)butan-2-yl)amino)-3-(1-methylcyclobutyl)-1-oxopropan-2-yl)oxalamide], under setting [1], the EC50 lay within 0.2 to 0.5 µM.

`O=C(Nc1ccccc1F)C(=O)N[C@@H](CC1CCCCC1)C(=O)N[C@H](C[C@@H]1CCCNC1=O)C(=O)CO` [Compound 25, N^1-((S)-3-cyclohexyl-1-(((R)-4-hydroxy-3-oxo-1-((S)-2-oxopiperidin-3-yl)butan-2-yl)amino)-1-oxopropan-2-yl)-N^2-(2-fluorophenyl)oxalamide]: the EC50 under setting [1] fell in the range of 0.05 to 0.2 µM. The same measure, in the same setting: as for `CC(C)(C)C[C@H](NC(=O)C(=O)Nc1ccccc1C(F)(F)F)C(=O)N[C@H](C[C@@H]1CCCNC1=O)C(=O)CO` [Compound 133, N^1-((S)-1-(((R)-4-hydroxy-3-oxo-1-((S)-2-oxopiperidin-3-yl)butan-2-yl)amino)-4,4-dimethyl-1-oxopentan-2-yl)-N^2-(2-(trifluoromethyl)phenyl)oxalamide], the figure is > 1 µM. On to `CC(C)(C)[C@H](NC(=O)C(F)(F)F)C(=O)N1C[C@H]2[C@@H]([C@H]1C(=O)N[C@H](C=O)C[C@@H]1CCCNC1=O)C2(C)C` [Compound 132, (1R,2S,5S)-3-((S)-3,3-dimethyl-2-(2,2,2-trifluoroacetamido)butanoyl)-6,6-dimethyl-N-((S)-1-oxo-3-((S)-2-oxopiperidin-3-yl)propan-2-yl)-3-azabicyclo[3.1.0]hexane-2-carboxamide], for which the concentration giving a half-maximal response (EC50) under setting [2] is 0.5 to 1 µM. With `CCCCCCC(=O)OCC(=O)[C@H](C[C@@H]1CCNC1=O)NC(=O)[C@H](CC(C)C)NC(=O)c1cc2c(OC)cccc2[nH]1` [Compound 119, (S)-3-((S)-2-(4-methoxy-1H-indole-2-carboxamido)-4-methylpentanamido)-2-oxo-4-((S)-2-oxopyrrolidin-3-yl)butyl heptanoate], under setting [1], the EC50 is 0.05 to 0.2 µM.
